In publication PMC10507085, “Pharmacological inhibition of TBK1/IKKε blunts immunopathology in a murine model of SARS-CoV-2 infection” (Nature Communications, 2023):

Tests used:
Assay in all cases: biochemical
Design in all cases: KINOMEscan competition binding, DNA-tagged kinase against immobilised ligand, qPCR read-out
Conditions in all cases: read-out: Percent Control
ACVR2B = ACVR2B (Homo sapiens, UniProt Q13705)
BMPR1A = BMPR1A (Homo sapiens, UniProt P36894)
CDK14 = CDK14 (Homo sapiens, UniProt O94921)
DCLK3 = DCLK3 (Homo sapiens, UniProt Q9C098)
EPHB3 = EPHB3 (Homo sapiens, UniProt P54753)
LIMK1 = LIMK1 (Homo sapiens, UniProt P53667)
MAP2K4 = MAP2K4 (Homo sapiens, UniProt P45985)
MAP2K7 = MAP2K7 (Homo sapiens, UniProt O14733)
MERTK = MERTK (Homo sapiens, UniProt Q12866)
PHKG2 = PHKG2 (Homo sapiens, UniProt P15735)
PIP5K1C = PIP5K1C (Homo sapiens, UniProt O60331)
PKMYT1 = PKMYT1 (Homo sapiens, UniProt Q99640)
PNCK = PNCK (Homo sapiens, UniProt Q6P2M8)
RIPK2 = RIPK2 (Homo sapiens, UniProt O43353)
[1] = target: T1, RSK3(Kin.Dom.1-N-terminal) (Homo sapiens, UniProt Q15349)
T1 construct: gene RPS6KA2; Kin.Dom.1 N-terminal

SRPK3 = SRPK3 (Homo sapiens, UniProt Q9UPE1)
STK35 = STK35 (Homo sapiens, UniProt Q8TDR2)
[2] = target: T2, TYK2(JH1domain-catalytic) (Homo sapiens, UniProt P29597)
T2 construct: JH1 domain catalytic

TYRO3 = TYRO3 (Homo sapiens, UniProt Q06418)
WNK3 = WNK3 (Homo sapiens, UniProt Q9BYP7)
Sequence of WNK3 (Q9BYP7 whole entry): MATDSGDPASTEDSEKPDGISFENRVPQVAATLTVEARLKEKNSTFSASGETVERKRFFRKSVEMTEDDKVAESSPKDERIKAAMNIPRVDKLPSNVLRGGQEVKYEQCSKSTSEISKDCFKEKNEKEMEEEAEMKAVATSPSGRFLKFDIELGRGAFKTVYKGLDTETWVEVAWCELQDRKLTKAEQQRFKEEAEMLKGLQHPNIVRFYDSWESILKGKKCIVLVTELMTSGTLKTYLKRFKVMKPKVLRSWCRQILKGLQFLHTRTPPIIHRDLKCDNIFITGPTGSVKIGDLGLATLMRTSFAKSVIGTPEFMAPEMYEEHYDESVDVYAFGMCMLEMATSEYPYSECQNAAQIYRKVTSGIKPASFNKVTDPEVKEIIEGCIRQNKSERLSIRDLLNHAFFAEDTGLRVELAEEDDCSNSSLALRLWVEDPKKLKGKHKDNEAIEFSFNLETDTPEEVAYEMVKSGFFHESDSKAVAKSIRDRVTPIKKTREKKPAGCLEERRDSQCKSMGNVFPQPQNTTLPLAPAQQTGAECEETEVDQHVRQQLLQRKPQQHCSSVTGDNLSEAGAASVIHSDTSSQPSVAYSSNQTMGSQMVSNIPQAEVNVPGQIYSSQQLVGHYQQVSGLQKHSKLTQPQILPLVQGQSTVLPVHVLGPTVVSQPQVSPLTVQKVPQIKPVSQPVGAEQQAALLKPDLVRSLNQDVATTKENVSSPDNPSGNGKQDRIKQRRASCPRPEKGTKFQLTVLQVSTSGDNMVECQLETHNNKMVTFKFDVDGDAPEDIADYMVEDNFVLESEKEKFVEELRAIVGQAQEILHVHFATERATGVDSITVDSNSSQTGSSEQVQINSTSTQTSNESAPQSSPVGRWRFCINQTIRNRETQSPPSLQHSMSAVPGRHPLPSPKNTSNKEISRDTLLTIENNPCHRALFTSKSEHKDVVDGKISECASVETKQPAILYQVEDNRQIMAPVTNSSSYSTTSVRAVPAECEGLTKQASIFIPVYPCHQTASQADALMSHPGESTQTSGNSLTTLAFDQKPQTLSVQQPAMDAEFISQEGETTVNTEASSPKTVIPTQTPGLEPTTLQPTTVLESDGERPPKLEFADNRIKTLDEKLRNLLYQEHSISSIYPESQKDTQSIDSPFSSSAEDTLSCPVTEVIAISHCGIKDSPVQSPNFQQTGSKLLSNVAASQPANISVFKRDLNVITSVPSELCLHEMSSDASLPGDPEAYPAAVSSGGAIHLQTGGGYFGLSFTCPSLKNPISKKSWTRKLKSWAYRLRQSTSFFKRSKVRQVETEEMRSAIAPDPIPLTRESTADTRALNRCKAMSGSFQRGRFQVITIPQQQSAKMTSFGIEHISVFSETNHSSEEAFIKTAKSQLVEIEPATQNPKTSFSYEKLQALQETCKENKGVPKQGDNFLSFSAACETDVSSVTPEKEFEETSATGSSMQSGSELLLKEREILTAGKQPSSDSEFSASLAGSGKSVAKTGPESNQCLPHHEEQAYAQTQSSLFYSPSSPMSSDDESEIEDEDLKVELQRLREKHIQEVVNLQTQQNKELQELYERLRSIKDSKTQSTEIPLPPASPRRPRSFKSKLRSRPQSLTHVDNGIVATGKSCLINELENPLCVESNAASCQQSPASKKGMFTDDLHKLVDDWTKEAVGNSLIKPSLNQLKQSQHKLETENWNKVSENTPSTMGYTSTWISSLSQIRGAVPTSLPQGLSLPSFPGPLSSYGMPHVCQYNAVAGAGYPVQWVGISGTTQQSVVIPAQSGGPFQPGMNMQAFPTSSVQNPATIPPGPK

Sequence of PIP5K1C (O60331 whole entry): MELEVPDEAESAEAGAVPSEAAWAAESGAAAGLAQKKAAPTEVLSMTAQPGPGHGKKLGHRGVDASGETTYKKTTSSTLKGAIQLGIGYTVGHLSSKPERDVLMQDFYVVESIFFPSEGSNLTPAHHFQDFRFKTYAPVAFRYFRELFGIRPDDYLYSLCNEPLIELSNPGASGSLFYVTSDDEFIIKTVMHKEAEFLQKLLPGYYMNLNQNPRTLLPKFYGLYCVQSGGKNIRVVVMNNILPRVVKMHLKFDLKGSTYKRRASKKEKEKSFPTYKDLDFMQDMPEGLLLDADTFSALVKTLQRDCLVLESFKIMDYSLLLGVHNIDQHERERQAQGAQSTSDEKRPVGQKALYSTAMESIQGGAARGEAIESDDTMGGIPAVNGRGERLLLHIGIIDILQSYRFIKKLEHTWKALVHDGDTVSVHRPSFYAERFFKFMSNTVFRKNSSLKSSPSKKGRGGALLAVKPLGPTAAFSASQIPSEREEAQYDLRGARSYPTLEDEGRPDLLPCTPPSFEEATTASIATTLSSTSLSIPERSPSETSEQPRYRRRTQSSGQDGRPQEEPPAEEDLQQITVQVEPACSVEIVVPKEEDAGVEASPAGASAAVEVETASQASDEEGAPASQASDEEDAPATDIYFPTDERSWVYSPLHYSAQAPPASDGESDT
Sequence of RIPK2 (O43353 whole entry): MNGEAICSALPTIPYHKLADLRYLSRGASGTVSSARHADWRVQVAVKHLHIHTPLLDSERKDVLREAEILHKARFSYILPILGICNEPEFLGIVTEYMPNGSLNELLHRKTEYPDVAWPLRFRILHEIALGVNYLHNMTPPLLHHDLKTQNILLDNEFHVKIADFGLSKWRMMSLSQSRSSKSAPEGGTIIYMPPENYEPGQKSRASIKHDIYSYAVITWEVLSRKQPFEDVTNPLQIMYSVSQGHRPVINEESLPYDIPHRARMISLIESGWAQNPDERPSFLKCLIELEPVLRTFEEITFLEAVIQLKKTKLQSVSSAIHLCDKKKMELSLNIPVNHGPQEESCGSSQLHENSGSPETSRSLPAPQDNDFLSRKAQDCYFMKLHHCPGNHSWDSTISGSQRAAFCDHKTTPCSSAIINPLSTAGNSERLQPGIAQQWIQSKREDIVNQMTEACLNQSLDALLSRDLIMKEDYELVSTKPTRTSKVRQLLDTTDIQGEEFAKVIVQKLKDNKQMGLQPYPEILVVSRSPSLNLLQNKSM
Sequence of MAP2K7 (O14733 whole entry): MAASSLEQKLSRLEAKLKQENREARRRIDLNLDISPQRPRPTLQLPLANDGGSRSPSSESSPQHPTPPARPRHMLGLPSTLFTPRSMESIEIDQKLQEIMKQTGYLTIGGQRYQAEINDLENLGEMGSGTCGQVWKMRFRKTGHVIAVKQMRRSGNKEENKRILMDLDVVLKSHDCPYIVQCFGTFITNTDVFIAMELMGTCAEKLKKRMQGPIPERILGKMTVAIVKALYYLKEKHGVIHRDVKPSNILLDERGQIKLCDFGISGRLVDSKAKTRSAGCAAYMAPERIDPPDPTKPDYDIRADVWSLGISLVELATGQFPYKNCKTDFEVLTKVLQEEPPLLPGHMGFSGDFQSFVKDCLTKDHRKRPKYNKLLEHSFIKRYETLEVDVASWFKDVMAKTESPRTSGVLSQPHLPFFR
Sequence of TYRO3 (Q06418 whole entry): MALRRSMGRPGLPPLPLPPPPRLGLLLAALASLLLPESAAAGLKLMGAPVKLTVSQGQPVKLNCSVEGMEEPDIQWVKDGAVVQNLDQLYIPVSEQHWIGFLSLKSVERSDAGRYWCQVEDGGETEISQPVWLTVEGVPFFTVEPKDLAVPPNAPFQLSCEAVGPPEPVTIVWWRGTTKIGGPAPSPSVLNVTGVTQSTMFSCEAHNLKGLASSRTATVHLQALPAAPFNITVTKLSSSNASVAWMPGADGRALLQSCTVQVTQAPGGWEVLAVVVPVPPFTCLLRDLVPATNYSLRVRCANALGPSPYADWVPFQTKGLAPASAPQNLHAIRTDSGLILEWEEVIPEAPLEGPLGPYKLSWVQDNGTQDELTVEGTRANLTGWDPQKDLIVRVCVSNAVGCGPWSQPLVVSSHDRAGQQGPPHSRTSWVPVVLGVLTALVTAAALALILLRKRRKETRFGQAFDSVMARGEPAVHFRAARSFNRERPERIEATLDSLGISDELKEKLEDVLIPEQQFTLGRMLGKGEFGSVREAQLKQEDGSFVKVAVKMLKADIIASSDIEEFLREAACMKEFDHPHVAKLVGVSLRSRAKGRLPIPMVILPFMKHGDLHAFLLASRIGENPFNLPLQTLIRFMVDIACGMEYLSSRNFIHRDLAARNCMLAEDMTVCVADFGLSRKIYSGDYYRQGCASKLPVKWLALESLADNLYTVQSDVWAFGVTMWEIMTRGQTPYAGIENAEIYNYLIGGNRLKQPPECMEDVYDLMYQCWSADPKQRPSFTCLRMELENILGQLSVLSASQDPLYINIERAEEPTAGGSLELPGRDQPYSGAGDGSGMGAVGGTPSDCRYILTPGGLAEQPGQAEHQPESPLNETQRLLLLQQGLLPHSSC
Sequence of PKMYT1 (Q99640 whole entry): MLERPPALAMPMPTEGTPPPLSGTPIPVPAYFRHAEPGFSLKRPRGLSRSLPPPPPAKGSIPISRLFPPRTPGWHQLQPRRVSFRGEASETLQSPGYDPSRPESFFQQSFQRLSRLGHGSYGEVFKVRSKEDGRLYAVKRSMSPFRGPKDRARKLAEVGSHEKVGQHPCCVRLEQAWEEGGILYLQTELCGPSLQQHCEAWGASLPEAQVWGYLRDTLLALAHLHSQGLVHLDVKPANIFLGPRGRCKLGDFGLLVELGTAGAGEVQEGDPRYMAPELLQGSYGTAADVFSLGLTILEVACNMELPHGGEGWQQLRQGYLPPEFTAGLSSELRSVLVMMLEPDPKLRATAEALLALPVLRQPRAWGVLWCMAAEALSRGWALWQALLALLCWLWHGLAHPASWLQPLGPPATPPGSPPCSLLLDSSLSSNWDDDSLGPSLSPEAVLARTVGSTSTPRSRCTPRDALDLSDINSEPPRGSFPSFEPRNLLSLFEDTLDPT

## Oc1ccc(C2=Cc3ccc(O)cc3OC2)cc1 [compound 1, idronoxil]
ACVR2B
  remaining binding at 10 µM: 53%
BMPR1A
  remaining binding at 10 µM: 89%
CDK14
  remaining binding at 10 µM: 95%
DCLK3
  remaining binding at 10 µM: 92%
EPHB3
  remaining binding at 10 µM: 95%
LIMK1
  remaining binding at 10 µM: 89%
MAP2K4
  remaining binding at 10 µM: 91%
MAP2K7
  remaining binding at 10 µM: 91%
MERTK
  remaining binding at 10 µM: 97%
PHKG2
  remaining binding at 10 µM: 46%
PIP5K1C
  remaining binding at 10 µM: 25%
PKMYT1
  remaining binding at 10 µM: 78%
PNCK
  remaining binding at 10 µM: 74%
RIPK2
  remaining binding at 10 µM: 81%
[1]
  remaining binding at 10 µM: 89%
SRPK3
  remaining binding at 10 µM: 94%
STK35
  remaining binding at 10 µM: 88%
[2]
  remaining binding at 10 µM: 74%
TYRO3
  remaining binding at 10 µM: 66%
WNK3
  remaining binding at 10 µM: 80%
